# Patent US20260354383A1, “AN HERBICIDAL COMBINATION, COMPOSITION AND METHOD OF CONTROLLING WEEDS USING THE SAME” (UPL Mauritius Limited, priority 2022, published 2026)
# Experiments:
# [1] = system: Viola arvensis, Bromus spp., Lolium spp., Agropyron repens and Urtica urens; settings: Hoechst et al., 1991; cited from earlier work
# weedy Glycine max = test: Post-emergence herbicidal activity (greenhouse), weedy Glycine max, Example 4; assay type: in vivo; settings: L-glufosinate ammonium 150
# Protocol: (§1) The expected efficacy of a combination of L-glufosinate ammonium and the other herbicides was calculated using the well-established Colby method. Any difference between the observed and “expected” efficacy could be attributed to synergy between the two compounds.
# (§2) In the Colby method, the expected (or predicted) response of a combination of herbicides is calculated by taking the product of the observed response for each individual component of the combination when applied alone, divided by 100, and subtracting this value from the sum of the observed response for each component when applied alone. An unexpected enhancement in efficacy of the combination is then determined by comparing the observed response of the combination to the expected (or predicted) response as calculated from the observed response of each individual component alone. If the observed response of the combination is greater than the expected (or predicted) response, or stated conversely, if the difference between the observed and expected response is greater than zero, then the combination is said to be synergistic or unexpectedly effective (Colby, S. R., Weeds, 1967(15), p. 20-22). The Colby method requires only a single dose of each herbicide applied alone and the mixture of both doses. The formula used to calculate the expected efficacy (EE) which was compared with the observed efficacy (OE) to determine the efficacy of the present disclosure is explained hereinbelow:
# (§3) The expected efficacy for a combination of two active ingredients is as follows:
# (§4) Evaluation of Post-Emergence Herbicidal Activity
# (§5) Methodology: Greenhouse trials were conducted to evaluate the efficacy of the combination comprising L-glufosinate ammonium and clethodim on weeds Eleusine indica, Brachiaria decumbens, Spermacoce latifolia and weedy Glycine max.
# (§6) The soil used was sandy clay loam—sand: 68.0%; silt: 8.0%; clay: 24.0%.
# (§7) All treatments were in 3 replications per treatment with a spray volume of about 150 L/ha.
# Example 4: Efficacy of L-Glufosinate Ammonium and Clethodim on Weedy Glycine max
# The percentage efficacy was calculated after 3, 7, 14, 21, 28 and 35 days of application (DAA). The target weed was weedy Glycine max, and the concentration of the herbicide and the results are recorded in the Table 4.
# Spermacoce latifolia = test: Post-emergence herbicidal activity (greenhouse), Spermacoce latifolia, Example 3; assay type: in vivo; settings: 7 DAA
# Protocol: as §1
# as §2, with “The Colby method requires only a single dose of each herbicide applied alone and the mixture of both doses. The formula used to calculate the expected efficacy (EE) which was compared with the observed efficacy (OE) to determine the efficacy of the present disclosure is explained hereinbelow:” left out
# The percentage efficacy was calculated after 7 days of application (DAA). The target weed was Spermacoce latifolia, and the concentration of the herbicide and the results are recorded in the Table 3.
# Brachiaria decumbens = test: Post-emergence herbicidal activity (greenhouse), Brachiaria decumbens, Example 2; assay type: in vivo; settings: L-glufosinate ammonium 150, clethodim 45 g a.i./ha
# Protocol: as §1, §2, §3, §4, §5, §6, §7
# Example 2: Efficacy of L-Glufosinate Ammonium and Clethodim on Brachiaria decumbens
# The percentage efficacy was calculated after 7, 14, 21, 28 and 35 days of application (DAA). The target weed was Brachiaria decumbens, and the concentration of the herbicides and the results are recorded in the Table 2.
# Eleusine indica = test: Post-emergence herbicidal activity (greenhouse), Eleusine indica, Example 1; assay type: in vivo; settings: L-glufosinate ammonium 150
# Protocol: as §1, §2, §3, §4, §5, §6, §7
# Example 1: Efficacy of L-Glufosinate Ammonium and Clethodim on Eleusine indica
# The percentage efficacy was calculated after 3, 7, 28 and 35 days of application (DAA). The target weed was Eleusine indica, and the concentration of the herbicide and the results are recorded in the Table 1.
# [2] = cited from earlier work
SMILES,"weed species either not combated, or only weakly combated [1]",% Control (weedy Glycine max; 3 DAA) [%],% Control (weedy Glycine max; 7 DAA) [%],% Control (weedy Glycine max; 14 DAA) [%],% Control (weedy Glycine max; 21 DAA) [%],% Control (weedy Glycine max; 28 DAA) [%],% Control (weedy Glycine max; 35 DAA) [%],% Control (Spermacoce latifolia) [%],% Control (Brachiaria decumbens; 7 DAA) [%],% Control (Brachiaria decumbens; 14 DAA) [%],% Control (Brachiaria decumbens; 21 DAA) [%],% Control (Brachiaria decumbens; 28 DAA) [%],% Control (Brachiaria decumbens; 35 DAA) [%],% Control (Eleusine indica; 3 DAA) [%],% Control (Eleusine indica; 7 DAA) [%],% Control (Eleusine indica; 28 DAA) [%],% Control (Eleusine indica; 35 DAA) [%],herbicidal activity relative to glyphosate ([2]; vs glyphosate),herbicidal activity relative to paraquat ([2]; vs paraquat),herbicidal activity relative to racemic glufosinate (DL-glufosinate) ([2]; vs racemic glufosinate)
"CP(=O)(O)CCC(N)C(=O)O (racemic) [Glufosinate, DL-homoalanin-4-yl(methyl)phosphinic acid]","either not combated, or only weakly combated",–,–,–,–,–,–,–,–,–,–,–,–,–,–,–,–,–,–,–
"CCSC(C)CC1CC(=O)C(/C(CC)=N/OC/C=C/Cl)=C(O)C1 (stereo not drawn) [Clethodim, clethodim]",–,0,0,0,0,0,0,3,15,55,65,75,71,6.7,15,81.7,84.3,–,–,–
"CP(=O)(O)CC[C@H](N)C(=O)O [L-Glufosinate, (S)-2-amino-4-(hydroxy(methyl)phosphonoyl)butanoic acid]",–,–,–,–,–,–,–,–,–,–,–,–,–,–,–,–,–,about four times that of glyphosate,about twice that of paraquat,more than about twice that of racemic glufosinate
"CP(=O)(O)CC[C@H](N)C(=O)O.N [L-glufosinate ammonium, ammonium (2S)-2-amino-4-(methylphosphinato)butyric acid]",–,15,53.3,71,66.7,56.7,41.7,31.7,50,79.3,82,79.3,79.3,12.3,50.7,59.3,54.3,–,–,–
